# Molecular target: T1, EGFR L858R-T790M (Homo sapiens, UniProt P00533, L858R/T790M)
# T1 construct: NCI-H1975 (harboring EGFR heterozygous L858R-T790M mutations); host or cells: NCI-H1975
# Test: EGFR degradation, Total EGFR (L858R-specific) HTRF, NCI-H1975
# Type: cell-based
# Conditions: Table 9A; NCI-H1975 cells, 6 hours, Total EGFR HTRF; read-out: H1975 EGFR DC50
# From the text: NCI-H1975 (harboring EGFR heterozygous L858R-T790M mutations) and NCI-H3255 (harboring EGFR heterozygous L858R mutation) were purchased from ATCC and NCI, respectively. NCI-H1975+CS (harboring EGFR heterozygous L858R-T790M-C797S mutations) was generated using CRISPR technology to introduce the additional C797S mutation by Horizon Discovery. A431 (harboring EGFR wildtype) was purchased from ATCC. RPMI 1640 no-phenol red medium and fetal bovine serum (FBS) were purchased from Gibco (Grand Island, NY, USA). Cell culture flasks and 384-well microplates were acquired from VWR (Radnor, PA, USA). Phosphorylated (pY1068) EGFR and Total EGFR (using L858R-specific detection antibody and pan-EGFR antibody for EGFR mutant cell lines and EGFR wild-type cell lines, respectively) HTRF assay kits were purchased from Cisbio (Bedford, MA, USA).
# Degradation of EGFR protein containing L858R mutation or wild-type was determined based on quantification of FRET signal using a Total EGFR (L858R-specific or pan-EGFR detecting) HTRF assay kit. Phospho-EGFR (pEGFR) inhibition was determined based on quantification of FRET signal using a pY1068 EGFR HTRF assay kit. In separate assay plates, test compounds were added to the 384-well plate from a top concentration of 10 μM with 11 points, half log titration in duplicates. For each assay, 12.5 uL of cells suspended in assay media (RPMI 1640 no-phenol red medium+10% FBS) at cell densities indicated for each cell line in Table 8 below were dispensed using a multi-channel pipette to 384-well low volume white HTRF microplates containing a duplicate concentration range of test compounds and DMSO controls. The plates were kept at 37° C. with 5% CO2 for 6 hours and then incubated with either phospho EGFR or Total EGFR HTRF detection antibodies according to the cell line and EGFR mutant being assayed. Cells treated in the absence of the test compound were the negative control. Positive control was set by wells containing all reagents but no cells. FRET signal was acquired on EnVision™ Multilabel Reader (PerkinElmer, Santa Clara, CA, USA). Compound concentration that achieves 50% degradation and inhibition was reported as DC50 and IC50, respectively.
# T1 sequence (P00533 25-1210 T790M/L858R): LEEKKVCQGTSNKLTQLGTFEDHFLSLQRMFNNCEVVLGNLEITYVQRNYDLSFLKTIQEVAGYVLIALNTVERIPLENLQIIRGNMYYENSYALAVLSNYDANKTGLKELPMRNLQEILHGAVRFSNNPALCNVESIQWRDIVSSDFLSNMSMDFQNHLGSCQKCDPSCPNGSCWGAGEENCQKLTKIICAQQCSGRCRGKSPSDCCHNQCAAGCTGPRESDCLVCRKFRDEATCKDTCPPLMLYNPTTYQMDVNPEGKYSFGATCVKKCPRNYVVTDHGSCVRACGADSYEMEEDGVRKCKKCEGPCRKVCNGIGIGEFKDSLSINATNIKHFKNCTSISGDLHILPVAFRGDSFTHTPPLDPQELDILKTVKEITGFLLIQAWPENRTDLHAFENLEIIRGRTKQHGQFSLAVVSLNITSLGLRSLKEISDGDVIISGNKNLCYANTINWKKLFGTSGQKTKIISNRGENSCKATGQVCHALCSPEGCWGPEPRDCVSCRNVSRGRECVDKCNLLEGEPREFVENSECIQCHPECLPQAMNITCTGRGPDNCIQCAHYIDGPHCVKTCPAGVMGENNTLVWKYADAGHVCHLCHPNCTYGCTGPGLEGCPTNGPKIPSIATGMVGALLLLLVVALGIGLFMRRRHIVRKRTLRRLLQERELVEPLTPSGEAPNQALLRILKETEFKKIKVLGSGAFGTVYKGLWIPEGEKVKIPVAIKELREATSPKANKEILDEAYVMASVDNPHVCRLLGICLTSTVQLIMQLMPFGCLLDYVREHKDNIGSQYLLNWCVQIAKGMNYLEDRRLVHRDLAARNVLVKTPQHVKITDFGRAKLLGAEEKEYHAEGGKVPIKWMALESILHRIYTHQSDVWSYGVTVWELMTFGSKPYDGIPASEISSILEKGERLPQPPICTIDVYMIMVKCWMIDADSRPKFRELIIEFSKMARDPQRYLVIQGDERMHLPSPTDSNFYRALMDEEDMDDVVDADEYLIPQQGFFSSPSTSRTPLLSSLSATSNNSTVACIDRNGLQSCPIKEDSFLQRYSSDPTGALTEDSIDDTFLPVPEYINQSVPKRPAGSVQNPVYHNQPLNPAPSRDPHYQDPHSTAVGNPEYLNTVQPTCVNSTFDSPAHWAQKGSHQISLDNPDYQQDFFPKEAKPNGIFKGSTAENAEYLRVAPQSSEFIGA
row,DC50 [nM],SMILES
1,50 to 150,"O=C1CCC(Nc2ccc(C3CCN(CC(=O)N4CCN(c5ccc(-c6cc(Cl)c7cn(C(C(=O)Nc8nccs8)c8ncn9c8CCC9)nc7c6Cl)cc5)CC4)CC3)cc2)C(=O)N1 (racemic) [Compound 61, (2RS)-2-[4,7-Dichloro-6-[4-[4-[2-[4-[4-[[(3RS)-2,6-dioxo-3-piperidyl]amino]phenyl]-1-piperidyl]acetyl]piperazin-1-yl]phenyl]indazol-2-yl]-2-(6,7-dihydro-5H-pyrrolo[1,2-c]imidazol-1-yl)-N-thiazol-2-yl-acetamide]"
2,< 50,"O=C1CC[C@H](Nc2ccc(C3CCN(CC(=O)N4CC[C@@H](Oc5ccc(-c6cc(F)c7c(c6)C(=O)N(C(C(=O)Nc6nccs6)c6ncn8c6CCC8)C7)cc5)C4)CC3)cc2)C(=O)N1 (stereo partly drawn) [Compound 41, 2-(6,7-dihydro-5H-pyrrolo[1,2-c]imidazol-1-yl)-2-[6-[4-[(3R)-1-[2-[4-[4-[[(3S)-2,6-dioxo-3-piperidyl]amino]phenyl]-1-piperidyl]acetyl]pyrrolidin-3-yl]oxyphenyl]-4-fluoro-1-oxo-isoindolin-2-yl]-N-thiazol-2-yl-acetamide]"

# Same assay, conditions: Table 9B; NCI-H1975 cells, 6 hours, Total EGFR HTRF; read-out: H1975 EGFR DC50
row,SMILES,DC50 [nM]
1,"N#Cc1cc(N2CCC(=O)NC2=O)ccc1N1CCC(O)(CC(=O)N2CC3(C2)CN(c2ccc(-c4cc(F)c5c(c4)C(=O)N(C(C(=O)Nc4nccs4)c4ncn6c4CCC6)C5)cc2)C3)CC1 (stereo not shown) [Compound 171, 2-[6-[4-[2-[2-[1-[2-cyano-4-(2,4-dioxohexahydropyrimidin-1-yl)phenyl]-4-hydroxy-4-piperidyl]acetyl]-2,6-diazaspiro[3.3]heptan-6-yl]phenyl]-4-fluoro-1-oxo-isoindolin-2-yl]-2-(6,7-dihydro-5H-pyrrolo[1,2-c]imidazol-1-yl)-N-thiazol-2-yl-acetamide]",> 150
2,"NC1(CC(=O)N2CC3(C2)CN(c2ccc(-c4cc(F)c5c(c4)C(=O)N(C(C(=O)Nc4nccs4)c4ncn6c4CCC6)C5)cc2)C3)CCN(c2ccc(NC3CCC(=O)NC3=O)cc2F)CC1 (stereo not shown) [Compound 162, 2-[6-[4-[2-[2-[4-amino-1-[4-[(2,6-dioxo-3-piperidyl)amino]-2-fluoro-phenyl]-4-piperidyl]acetyl]-2,6-diazaspiro[3.3]heptan-6-yl]phenyl]-4-fluoro-1-oxo-isoindolin-2-yl]-2-(6,7-dihydro-5H-pyrrolo[1,2-c]imidazol-1-yl)-N-thiazol-2-yl-acetamide]",< 50

# Other lines, results leading:
row,DC50 [nM],SMILES
1,50 to 150,"O=C1CCC(Nc2cc(F)c(N3CCC(CC(=O)N4CC5(C4)CN(c4ccc(-c6cc(F)c7c(c6)C(=O)N(C(C(=O)Nc6nccs6)c6ncn8c6CCC8)C7)cc4)C5)CC3)c(F)c2)C(=O)N1 (stereo not shown) [Compound 101, 2-(6,7-dihydro-5H-pyrrolo[1,2-c]imidazol-1-yl)-2-(6-(4-(6-(2-(1-(4-((2,6-dioxopiperidin-3-yl)amino)-2,6-difluorophenyl)piperidin-4-yl)acetyl)-2,6-diazaspiro[3.3]heptan-2-yl)phenyl)-4-fluoro-1-oxoisoindolin-2-yl)-N-(thiazol-2-yl)acetamide]"
2,< 50,"O=C1CCC(Nc2cc(F)c(N3CCC(O)(CC(=O)N4CC5(C4)CN(c4ccc(-c6cc(F)c7c(c6)C(=O)N(C(C(=O)Nc6nccs6)c6ncn8c6CCC8)C7)cc4)C5)CC3)c(F)c2)C(=O)N1 (single isomer, unassigned; isomer 1) [Compound 119, 2-(6,7-dihydro-5H-pyrrolo[1,2-c]imidazol-1-yl)-2-(6-(4-(6-(2-(1-(4-((2,6-dioxopiperidin-3-yl)amino)-2,6-difluorophenyl)-4-hydroxypiperidin-4-yl)acetyl)-2,6-diazaspiro[3.3]heptan-2-yl)phenyl)-4-fluoro-1-oxoisoindolin-2-yl)-N-(thiazol-2-yl)acetamide, isomer 1]"
3,50 to 150,"O=C1CCC(Nc2ccc(-c3ccc(CC(=O)N4CCC(Oc5ccc(-c6cc(F)c7c(c6)C(=O)N(C(C(=O)Nc6nccs6)c6ncn8c6CCC8)C7)cc5)CC4)cc3)cc2)C(=O)N1 (stereo not shown) [Compound 81, 2-(6,7-dihydro-5H-pyrrolo[1,2-c]imidazol-1-yl)-2-(6-(4-((1-(2-(4′-((2,6-dioxopiperidin-3-yl)amino)-[1,1′-biphenyl]-4-yl)acetyl)piperidin-4-yl)oxy)phenyl)-4-fluoro-1-oxoisoindolin-2-yl)-N-(thiazol-2-yl)acetamide]"
